Measured values taken from patent US9067943B2, “[1,2,3]triazolo[4,5-D]pyrimidine derivatives” (priority 2011, dated 2015).

Experiments:
human CB2 receptors = target: T1, human CB2 receptors (Homo sapiens, UniProt P34972); test: cAMP assay; type: cell-based
T1 construct: expressed in transfected cells; host or cells: CHO cells
Procedure: (§1) CHO cells expressing human CB1 or CB2 receptors are seeded 17-24 hours prior to the experiment 50.000 cells per well in a black 96 well plate with flat clear bottom (Corning Costar #3904) in DMEM (Invitrogen No. 31331), 1×HT supplement, with 10% fetal calf serum and incubated at 5% CO2 and 37° C. in a humidified incubator. The growth medium was exchanged with Krebs Ringer Bicarbonate buffer with 1 mM IBMX and incubated at 30° C. for 30 min. Compounds were added to a final assay volume of 100 μl and incubated for 30 min at 30° C. Using the cAMP-Nano-TRF detection kit the assay (Roche Diagnostics) was stopped by the addition of 50 μl lysis reagent (Tris, NaCl, 1.5% Triton X100, 2.5% NP40, 10% NaN3) and 50 μl detection solutions (20 μM mAb Alexa700-cAMP 1:1, and 48 μM Ruthenium-2-AHA-cAMP) and shaken for 2 h at room temperature. The time-resolved energy transfer is measured by a TRF reader (Evotec Technologies GmbH), equipped with a ND:YAG laser as excitation source. The plate is measured twice with the excitation at 355 nm and at the emission with a delay of 100 ns and a gate of 100 ns, total exposure time 10 s at 730 (bandwidth 30 nm) or 645 nm (bandwidth 75 nm), respectively. The FRET signal is calculated as follows: FRET=T730-Alexa730-P(T645-B645) with P=Ru730-B730/Ru645-B645, where T730 is the test well measured at 730 nM, T645 is the test well measured at 645 nm, B730 and B645 are the buffer controls at 730 nm and 645 nm, respectively. cAMP content is determined from the function of a standard curve spanning from 10 μM to 0.1 nM cAMP.
(§2) EC50 values were determined using Activity Base analysis (ID Business Solution, Limited). The EC50 values for a wide range of cannabinoid agonists generated from this assay were in agreement with the values published in the scientific literature.

human CB1 receptors = target: T2, human CB1 receptors (Homo sapiens, UniProt P21554); test: cAMP assay; type: cell-based
T2 construct: expressed in transfected cells; host or cells: CHO cells
Procedure: as §1, §2

T2 sequence (P21554 whole entry): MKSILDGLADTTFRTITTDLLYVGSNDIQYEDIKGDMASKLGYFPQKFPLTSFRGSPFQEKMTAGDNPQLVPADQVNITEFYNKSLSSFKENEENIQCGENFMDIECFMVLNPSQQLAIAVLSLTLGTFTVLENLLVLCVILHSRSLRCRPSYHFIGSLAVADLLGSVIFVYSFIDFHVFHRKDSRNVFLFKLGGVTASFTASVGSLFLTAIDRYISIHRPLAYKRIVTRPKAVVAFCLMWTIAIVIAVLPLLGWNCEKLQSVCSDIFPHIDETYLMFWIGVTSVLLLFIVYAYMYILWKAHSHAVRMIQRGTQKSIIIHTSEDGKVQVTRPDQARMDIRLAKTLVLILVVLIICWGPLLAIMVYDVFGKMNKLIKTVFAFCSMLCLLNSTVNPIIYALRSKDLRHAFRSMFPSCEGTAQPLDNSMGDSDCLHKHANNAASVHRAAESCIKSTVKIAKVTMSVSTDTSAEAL
T1 sequence (P34972 whole entry): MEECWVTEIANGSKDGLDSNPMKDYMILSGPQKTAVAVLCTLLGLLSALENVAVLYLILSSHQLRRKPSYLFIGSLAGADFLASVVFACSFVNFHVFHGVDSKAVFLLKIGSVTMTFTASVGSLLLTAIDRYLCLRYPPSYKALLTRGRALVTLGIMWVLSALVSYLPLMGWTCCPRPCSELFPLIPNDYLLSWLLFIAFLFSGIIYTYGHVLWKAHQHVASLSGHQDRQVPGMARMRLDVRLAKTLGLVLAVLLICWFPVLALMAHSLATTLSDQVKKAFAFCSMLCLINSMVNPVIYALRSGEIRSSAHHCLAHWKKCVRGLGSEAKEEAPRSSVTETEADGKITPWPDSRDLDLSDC

CC(C)(C)c1nc(N2CCC(F)(F)C2)c2nn(CCc3ccccc3)nc2n1 [Example 26, 5-tert-Butyl-7-(3,3-difluoro-pyrrolidin-1-yl)-2-phenethyl-2H-[1,2,3]triazolo[4,5-d]pyrimidine]
EC50 (human CB2 receptors): 1.3 nM | EC50 (human CB1 receptors): 386 nM

CC(C)(C)c1nc(N2CCC(F)(F)C2)c2nn(CC(=O)c3ccccc3)nc2n1 [Example 27, 2-[5-tert-Butyl-7-(3,3-difluoro-pyrrolidin-1-yl)-[1,2,3]triazolo[4,5-d]pyrimidin-2-yl]-1-phenyl-ethanone]
EC50 (human CB2 receptors): 0.9 nM | EC50 (human CB1 receptors): > 10000 nM

C[C@H](c1ccccc1Cl)n1nc2nc(C(C)(C)C)nc(N3CCC(F)(F)C3)c2n1 [Example 28, 5-tert-Butyl-2-[(R)-1-(2-chloro-phenyl)-ethyl]-7-(3,3-difluoro-pyrrolidin-1-yl)-2H-[1,2,3]triazolo[4,5-d]pyrimidine]
EC50 (human CB2 receptors): 0.2 nM | EC50 (human CB1 receptors): 134 nM

C[C@@H](c1ccccc1Cl)n1nc2nc(C(C)(C)C)nc(N3CCC(F)(F)C3)c2n1 [Example 29, 5-tert-Butyl-2-[(S)-1-(2-chloro-phenyl)-ethyl]-7-(3,3-difluoro-pyrrolidin-1-yl)-2H-[1,2,3]triazolo[4,5-d]pyrimidine]
EC50 (human CB2 receptors): 0.8 nM | EC50 (human CB1 receptors): 98 nM

CC(C)(C)c1nc(N2CCC(F)(F)C2)c2nn(Cc3c(Cl)ccc(F)c3Cl)nc2n1 [Example 33, 5-tert-Butyl-2-(2,6-dichloro-3-fluoro-benzyl)-7-(3,3-difluoro-pyrrolidin-1-yl)-2H-[1,2,3]triazolo[4,5-d]pyrimidine]
EC50 (human CB2 receptors): 1.2 nM | EC50 (human CB1 receptors): > 10000 nM

CC(C)(C)c1nc(N2CCC(F)(F)C2)c2nn(Cc3cccnc3Cl)nc2n1 [Example 34, 5-tert-Butyl-2-(2-chloro-pyridin-3-ylmethyl)-7-(3,3-difluoro-pyrrolidin-1-yl)-2H-[1,2,3]triazolo[4,5-d]pyrimidine]
EC50 (human CB2 receptors): 0.5 nM | EC50 (human CB1 receptors): > 10000 nM

CC(C)(C)c1nc(N2CCC(F)(F)C2)c2nn(Cc3cnccc3Cl)nc2n1 [Example 35, 5-tert-Butyl-2-(4-chloro-pyridin-3-ylmethyl)-7-(3,3-difluoro-pyrrolidin-1-yl)-2H-[1,2,3]triazolo[4,5-d]pyrimidine]
EC50 (human CB2 receptors): 0.5 nM | EC50 (human CB1 receptors): 642 nM

CC(C)(C)c1nc(N2CCC(F)(F)C2)c2nn(Cc3ncccc3Cl)nc2n1 [Example 36, 5-tert-Butyl-2-(3-chloro-pyridin-2-ylmethyl)-7-(3,3-difluoro-pyrrolidin-1-yl)-2H-[1,2,3]triazolo[4,5-d]pyrimidine]
EC50 (human CB2 receptors): 0.2 nM | EC50 (human CB1 receptors): 20.3 nM

CC(C)(C)c1nc(N2CCC(F)(F)C2)c2nn(Cc3cc(Cl)cnc3Cl)nc2n1 [Example 37, 5-tert-Butyl-2-(2,5-dichloro-pyridin-3-ylmethyl)-7-(3,3-difluoro-pyrrolidin-1-yl)-2H-[1,2,3]triazolo[4,5-d]pyrimidine]
EC50 (human CB2 receptors): 0.9 nM | EC50 (human CB1 receptors): > 10000 nM

CC(C)(C)c1nc(N2CCC(F)(F)C2)c2nn(Cc3nc(Cl)ccc3Cl)nc2n1 [Example 38, 5-tert-Butyl-2-(3,6-dichloro-pyridin-2-ylmethyl)-7-(3,3-difluoro-pyrrolidin-1-yl)-2H-[1,2,3]triazolo[4,5-d]pyrimidine]
EC50 (human CB2 receptors): 1.1 nM | EC50 (human CB1 receptors): 98.6 nM

Cc1nonc1Cn1nc2nc(C(C)(C)C)nc(N3CCC(F)(F)C3)c2n1 [Example 39, 5-tert-Butyl-7-(3,3-difluoro-pyrrolidin-1-yl)-2-(4-methyl-furazan-3-ylmethyl)-2H-[1,2,3]triazolo[4,5-d]pyrimidine]
EC50 (human CB2 receptors): 0.2 nM | EC50 (human CB1 receptors): > 10000 nM

Cc1noc(Cn2nc3nc(C(C)(C)C)nc(N4CCC(F)(F)C4)c3n2)n1 [Example 40, 5-tert-Butyl-7-(3,3-difluoro-pyrrolidin-1-yl)-2-(3-methyl-[1,2,4]oxadiazol-5-ylmethyl)-2H-[1,2,3]triazolo[4,5-d]pyrimidine]
EC50 (human CB2 receptors): 4.3 nM | EC50 (human CB1 receptors): > 10000 nM

CC(C)(C)c1nc(N2CCC(F)(F)C2)c2nn(CCc3ccccc3Cl)nc2n1 [Example 41, 5-tert-Butyl-2-[2-(2-chloro-phenyl)-ethyl]-7-(3,3-difluoro-pyrrolidin-1-yl)-2H-[1,2,3]triazolo[4,5-d]pyrimidine]
EC50 (human CB2 receptors): 0.5 nM | EC50 (human CB1 receptors): 498 nM

CC(C)(C)c1nc(N2CCC(F)(F)C2)c2nn(CCc3cccc(Cl)c3)nc2n1 [Example 42, 5-tert-Butyl-2-[2-(3-chloro-phenyl)-ethyl]-7-(3,3-difluoro-pyrrolidin-1-yl)-2H-[1,2,3]triazolo[4,5-d]pyrimidine]
EC50 (human CB2 receptors): 10.6 nM | EC50 (human CB1 receptors): > 10000 nM

CC(C)(C)c1nc(N2CCC(F)(F)C2)c2nn(CCc3ccc(Cl)cc3)nc2n1 [Example 43, 5-tert-Butyl-2-[2-(4-chloro-phenyl)-ethyl]-7-(3,3-difluoro-pyrrolidin-1-yl)-2H-[1,2,3]triazolo[4,5-d]pyrimidine]
EC50 (human CB2 receptors): 22 nM | EC50 (human CB1 receptors): > 10000 nM

CC(C)(C)c1nc(N2CCC(F)(F)C2)c2nn(Cc3c(Cl)ccnc3Cl)nc2n1 [Example 44, 5-tert-Butyl-2-(2,4-dichloro-pyridin-3-ylmethyl)-7-(3,3-difluoro-pyrrolidin-1-yl)-2H-[1,2,3]triazolo[4,5-d]pyrimidine]
EC50 (human CB2 receptors): 0.2 nM | EC50 (human CB1 receptors): 454 nM

CC(C)(C)c1nc(N2CCC(F)(F)C2)c2nn([C@@H]3CCOC3)nc2n1 [Example 45, 5-tert-Butyl-7-(3,3-difluoro-pyrrolidin-1-yl)-2-(R)-tetrahydro-furan-3-yl-2H-[1,2,3]triazolo[4,5-d]pyrimidine]
EC50 (human CB2 receptors): 7.6 nM | EC50 (human CB1 receptors): > 10000 nM

CC(C)(C)c1nc(N2CCC(F)(F)C2)c2nn([C@H]3CCOC3)nc2n1 [Example 46, 5-tert-Butyl-7-(3,3-difluoro-pyrrolidin-1-yl)-2-(S)-tetrahydro-furan-3-yl-2H-[1,2,3]triazolo[4,5-d]pyrimidine]
EC50 (human CB2 receptors): 2.8 nM | EC50 (human CB1 receptors): > 10000 nM

CC(C)(C)c1nc(N2CCC(F)(F)C2)c2nn(CC(=O)c3ccccc3Cl)nc2n1 [Example 47, 2-[5-tert-Butyl-7-(3,3-difluoro-pyrrolidin-1-yl)-[1,2,3]triazolo[4,5-d]pyrimidin-2-yl]-1-(2-chloro-phenyl)-ethanone]
EC50 (human CB2 receptors): 0.6 nM | EC50 (human CB1 receptors): > 10000 nM

CC(C)(C)c1nc(N2CCC(F)(F)C2)c2nn(Cc3c(F)ccc(Cl)c3Cl)nc2n1 [Example 48, 5-tert-Butyl-2-(2,3-dichloro-6-fluoro-benzyl)-7-(3,3-difluoro-pyrrolidin-1-yl)-2H-[1,2,3]triazolo[4,5-d]pyrimidine]
EC50 (human CB2 receptors): 5.5 nM | EC50 (human CB1 receptors): > 10000 nM

CC(C)(C)c1nc(N2CCC(F)(F)C2)c2nn(Cc3ccccc3S(C)(=O)=O)nc2n1 [Example 49, 5-tert-Butyl-7-(3,3-difluoro-pyrrolidin-1-yl)-2-(2-methanesulfonyl-benzyl)-2H-[1,2,3]triazolo[4,5-d]pyrimidine]
EC50 (human CB2 receptors): 0.4 nM | EC50 (human CB1 receptors): 150 nM

CC(C)(C)c1nc(N2CCC(F)(F)C2)c2nn(CCc3ccccn3)nc2n1 [Example 50, 5-tert-Butyl-7-(3,3-difluoro-pyrrolidin-1-yl)-2-(2-pyridin-2-yl-ethyl)-2H-[1,2,3]triazolo[4,5-d]pyrimidine]
EC50 (human CB2 receptors): 1.5 nM | EC50 (human CB1 receptors): > 10000 nM

CC1(Cn2nc3nc(C(C)(C)C)nc(N4CCC(F)(F)C4)c3n2)COC1 [Example 51, 5-tert-Butyl-7-(3,3-difluoro-pyrrolidin-1-yl)-2-(3-methyl-oxetan-3-ylmethyl)-2H-[1,2,3]triazolo[4,5-d]pyrimidine]
EC50 (human CB2 receptors): 0.9 nM | EC50 (human CB1 receptors): > 10000 nM
